For 46 compounds, IC50 results are on record in patent US12325703B2, “Fused ring compound as FGFR and VEGFR dual inhibitor” (CGENETECH (SUZHOU, CHINA) CO., LTD., priority 2019, dated 2025).

Structures can show the parent of a compound that is named as a salt.

Assay [1] has as its system human gastric cancer SNU-16 cells expressing FGFR2. Briefly: Cell activity (proliferation) test of gastric cancer cell line SNU-16, CellTiter-Glo. The following applies: inhibition of proliferation. The assay is classed as cell-based. Here is the method:
To test the inhibitory effect of the compounds on the proliferation of human gastric cancer SNU-16 cells expressing FGFR2.
The compounds used in the test were subjected to 3-fold concentration dilution, the concentration starting from 10 μM and subjected to […], resulting in 9 concentrations: 10 μM, 2.50 μM, 0.62 μM, 0.156 μM, 39.1 nM, 9.8 nM, 2.4 nM, 0.61 nM, and 0.15 nM.
(1) Promega CellTiter-Glo luminescent cell viability assay kit (Promega-G7573).
(2) 2104 EnVision multi-tag reader, PerkinElmer.
The inhibition rate of different doses of the compounds would be calculated in the Excel file, and the IC50 data was obtained by parametric curve fitting (GraphPad Software).
On the technique in general: In ATP-based viability assays light output follows the ATP content of the culture.

A further assay concerns the target T1, human FGFR2 (Homo sapiens, UniProt P21802).
T1 construct: purchased Invitrogen PV3368
Nature of the assay: 33P isotope-labeled kinase activity test (Reaction Biology Corp), FGFR2. The following applies: 33P-ATP 5 μM, kinase 0.45 nM, 120 min room temperature. Type of assay: biochemical. As to the method: (§1) The IC50 value was determined using ^33P isotope-labeled kinase activity test (Reaction Biology Corp) to evaluate the inhibitory ability of the compounds to be tested on human FGFR1, FGFR2 and VEGFR2.
(§2) Buffer conditions: 20 mM Hepes (pH 7.5), 10 mM MgCl2, 1 mM EGTA, 0.02% Brij35, 0.02 mg/mL BSA, 0.1 mM Na3VO4, 2 mM DTT, 1% DMSO.
(§3) Test steps: At room temperature, the compounds to be tested were dissolved in DMSO to prepare a 10 mM solution for use. The substrate was dissolved in the newly-prepared buffer, and the kinase to be tested was added thereto and mixed well. The DMSO solution in which the compounds to be tested were dissolved was added to the above-mentioned homogeneous reaction solution using acoustic technology (Echo 550). […] After incubating for 15 minutes, to the reaction solution was added ^33P-ATP (activity: 0.01 μCi/μL, with corresponding concentration listed in Table 10) to start the reaction. […] The kinase activity data was expressed by comparing the kinase activity of the groups containing the compounds to be tested with that of the blank group (containing only DMSO). The IC50 value was obtained by curve fitting using Prism4 software (GraphPad), and the experimental results were shown in Table 11.

The target of the next assay is T2, human VEGFR2 (Homo sapiens, UniProt P35968).
T2 construct: purchased Invitrogen PR5992C
Briefly: 33P isotope-labeled kinase activity test (Reaction Biology Corp), VEGFR2. The assay is classed as biochemical. The following applies: 33P-ATP 20 μM, kinase 1 nM, 120 min room temperature. As to the method: as §1, §2, §3

T2 sequence (P35968 20-1356): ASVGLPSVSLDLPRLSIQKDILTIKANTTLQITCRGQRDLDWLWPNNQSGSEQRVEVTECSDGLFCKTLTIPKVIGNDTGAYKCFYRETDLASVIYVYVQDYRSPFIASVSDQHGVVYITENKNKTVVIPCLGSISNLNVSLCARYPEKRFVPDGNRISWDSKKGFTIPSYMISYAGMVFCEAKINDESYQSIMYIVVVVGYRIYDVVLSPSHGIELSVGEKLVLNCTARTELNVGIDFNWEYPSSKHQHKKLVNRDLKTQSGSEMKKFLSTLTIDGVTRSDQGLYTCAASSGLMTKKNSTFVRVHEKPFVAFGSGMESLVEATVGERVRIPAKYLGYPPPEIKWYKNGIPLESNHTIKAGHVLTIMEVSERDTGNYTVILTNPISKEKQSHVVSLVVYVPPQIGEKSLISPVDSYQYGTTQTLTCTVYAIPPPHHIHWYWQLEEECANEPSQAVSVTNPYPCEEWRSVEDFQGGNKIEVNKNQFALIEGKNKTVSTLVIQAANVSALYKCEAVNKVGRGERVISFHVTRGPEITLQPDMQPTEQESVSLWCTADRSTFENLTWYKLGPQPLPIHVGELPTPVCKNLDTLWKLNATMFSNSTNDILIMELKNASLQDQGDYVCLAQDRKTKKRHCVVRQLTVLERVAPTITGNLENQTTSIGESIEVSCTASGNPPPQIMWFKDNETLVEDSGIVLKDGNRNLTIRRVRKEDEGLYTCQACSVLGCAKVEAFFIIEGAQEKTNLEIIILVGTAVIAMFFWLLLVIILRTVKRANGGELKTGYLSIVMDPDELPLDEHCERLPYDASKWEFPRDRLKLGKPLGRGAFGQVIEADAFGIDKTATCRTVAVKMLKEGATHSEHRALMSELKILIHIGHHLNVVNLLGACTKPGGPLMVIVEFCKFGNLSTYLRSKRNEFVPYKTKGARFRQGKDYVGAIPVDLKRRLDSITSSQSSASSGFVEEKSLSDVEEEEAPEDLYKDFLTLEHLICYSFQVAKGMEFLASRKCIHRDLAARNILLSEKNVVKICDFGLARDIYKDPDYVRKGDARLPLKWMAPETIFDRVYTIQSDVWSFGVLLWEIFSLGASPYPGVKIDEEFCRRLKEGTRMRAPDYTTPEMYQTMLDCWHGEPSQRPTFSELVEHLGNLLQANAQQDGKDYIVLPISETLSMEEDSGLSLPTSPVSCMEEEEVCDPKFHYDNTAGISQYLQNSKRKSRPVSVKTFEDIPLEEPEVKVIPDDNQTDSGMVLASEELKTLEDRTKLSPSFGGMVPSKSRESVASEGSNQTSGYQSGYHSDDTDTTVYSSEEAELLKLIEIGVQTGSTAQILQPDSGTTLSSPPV
T1 sequence (P21802 22-821): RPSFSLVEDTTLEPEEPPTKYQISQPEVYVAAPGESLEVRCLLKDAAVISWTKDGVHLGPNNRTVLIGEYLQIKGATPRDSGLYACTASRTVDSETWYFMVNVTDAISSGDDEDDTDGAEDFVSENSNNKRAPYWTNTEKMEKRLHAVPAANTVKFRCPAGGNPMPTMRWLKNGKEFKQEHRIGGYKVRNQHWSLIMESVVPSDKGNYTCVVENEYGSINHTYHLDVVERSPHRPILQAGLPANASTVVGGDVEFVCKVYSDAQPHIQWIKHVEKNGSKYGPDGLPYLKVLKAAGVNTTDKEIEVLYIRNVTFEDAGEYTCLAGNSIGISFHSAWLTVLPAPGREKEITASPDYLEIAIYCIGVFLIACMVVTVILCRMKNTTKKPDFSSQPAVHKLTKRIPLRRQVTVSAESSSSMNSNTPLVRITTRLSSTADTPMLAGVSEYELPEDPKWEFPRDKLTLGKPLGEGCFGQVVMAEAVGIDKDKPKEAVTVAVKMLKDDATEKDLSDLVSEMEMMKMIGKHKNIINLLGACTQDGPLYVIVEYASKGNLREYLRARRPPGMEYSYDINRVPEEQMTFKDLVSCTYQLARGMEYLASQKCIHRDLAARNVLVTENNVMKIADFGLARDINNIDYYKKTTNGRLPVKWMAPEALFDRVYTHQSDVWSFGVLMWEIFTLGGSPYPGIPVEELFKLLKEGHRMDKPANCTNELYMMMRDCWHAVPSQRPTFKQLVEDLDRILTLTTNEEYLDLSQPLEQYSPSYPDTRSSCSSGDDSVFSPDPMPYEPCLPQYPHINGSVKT

Broadly, the IC50 is the midpoint of a concentration-inhibition curve. A low value points to greater potency. In turn, `Cn1cc(-c2ccc3c(c2)ncn3-c2cc(NS(=O)(=O)C3CC3)cc(-c3ccc(F)cc3F)c2)cn1` [Comparative example 1, reference compound] returned a concentration for half-maximal inhibition (IC50) in assay [1] of 62 nM.

On to `Cn1cc(-c2ccc3c(-c4cc(NS(=O)(=O)C5CC5)cc(-c5ccc(F)nc5F)c4)cnn3c2)cn1` [Compound 8], for which, at human FGFR2, the 50% inhibitory concentration (IC50) was 65.3 nM. The compound `Cn1cc(-c2ccc3c(-c4cc(NS(C)(=O)=O)nc(-c5ccc(F)cc5F)c4)cnn3c2)cn1` [Compound 12] displayed a 50% inhibitory concentration (IC50) at human FGFR2 of 3.74 nM.

`CCS(=O)(=O)Nc1cc(-c2cnn3cc(-c4cnn(C)c4)ccc23)cc(-c2ccc(F)cc2F)n1` [Compound 13] gave an IC50 against human FGFR2 of 2.98 nM.

For `CS(=O)(=O)Nc1cc(-c2ccc(F)cc2F)cc(-c2cnn3cc(-c4ncn(C5CCOCC5)n4)ccc23)c1` [Compound 15], on human FGFR2, the IC50 amounted to 287 nM. In turn, `Cc1ncn(-c2ccc3c(-c4cc(NS(=O)(=O)C5CC5)cc(-c5ccc(F)cc5F)c4)cnn3c2)n1` [Compound 16] returned an IC50 on human FGFR2 of 312 nM. At human FGFR2, `CCS(=O)(=O)Nc1cc(-c2ccc(F)cc2F)cc(-c2cnn3cc(-n4cnc(C)n4)ccc23)c1` [Compound 17] yielded an IC50 of 142 nM. Still for that read-out and setting: then `CS(=O)(=O)Nc1cc(-c2ccc(F)cc2F)cc(-c2cnn3cc(-c4ncn(CCO)n4)ccc23)c1` [Compound 18], with 256 nM; and `Cc1ncn(-c2ccc3c(-c4cc(NS(C)(=O)=O)cc(-c5ccc(F)cc5F)c4)cnn3c2)n1` [Compound 19], with 88.6 nM. For the compound `CN(C)CCn1cc(-c2ccc3c(-c4cc(NS(C)(=O)=O)cc(-c5ccc(F)cc5F)c4)cnn3c2)cn1` [Compound 20], the values for the IC50 (at human FGFR2; in assay [1]) were 0.23 nM and 7.5 nM, respectively.

Turning to `CS(=O)(=O)Nc1cc(-c2ccc(F)cc2F)cc(-c2cnn3cc(-c4cnn(CC(O)CO)c4)ccc23)c1` (stereo not drawn) [Compound 22], the IC50 on human FGFR2 was 4.38 nM; against human VEGFR2 it was 1.88 nM; in assay [1] it was 28.5 nM.

Turning to `Cn1cc(-c2ccc3c(-c4cc(NC(=O)NC5CC5)cc(-c5ccc(F)cc5F)c4)cnn3c2)cn1` [Compound 23], on human FGFR2, inhibition was half-maximal at 1.88 nM (IC50). The same measure, in the same setting: then `CONC(=O)Nc1cc(-c2ccc(F)cc2F)cc(-c2cnn3cc(-c4cnn(C)c4)ccc23)c1` [Compound 24], with 10.1 nM. In the case of `Cn1cc(-c2ccc3c(-c4cc(NC(=O)N5CCC(O)C5)cc(-c5ccc(F)cc5F)c4)cnn3c2)cn1` (stereo not drawn) [Compound 25], the results for the 50% inhibitory concentration (IC50) at human FGFR2 and against human VEGFR2 were 40.2 nM and 22.4 nM, respectively.

In assay [1], `Cn1cc(-c2ccc3c(-c4cc(NS(C)(=O)=O)cc(-c5ccc(F)cc5F)c4)cnn3c2)nn1` [Compound 26] had an IC50 of 7.8 nM.

Compound `Cn1nccc1-c1ccc2c(-c3cc(NS(C)(=O)=O)cc(-c4ccc(F)cc4F)c3)cnn2c1` [Compound 28] returned an IC50 at human FGFR2 of 359 nM.

`CN1CCC(n2cc(-c3ccc4c(-c5cc(NS(C)(=O)=O)cc(-c6ccc(F)cc6F)c5)cnn4c3)cn2)CC1` [Compound 30] showed an IC50 at human FGFR2 of 0.3 nM. Still for that read-out and setting: then `CC(C)(O)Cn1cc(-c2ccc3c(-c4cc(NS(C)(=O)=O)cc(-c5ncc(F)cc5F)c4)cnn3c2)cn1` [Compound 31], with 1.79 nM. As for `CS(=O)(=O)Nc1cc(-c2ncc(F)cc2F)cc(-c2cnn3cc(-c4cnn(CC(O)CO)c4)ccc23)c1` (stereo not drawn) [Compound 34], the 50% inhibitory concentration (IC50) came to 0.42 nM against human FGFR2 and 0.29 nM at human VEGFR2. For the compound `CS(=O)(=O)Nc1cc(-c2ncc(F)cc2F)cc(-c2cnn3cc(C4CC4)ccc23)c1` [Compound 35], at human FGFR2, the midpoint of inhibition, the IC50, lay at 49.2 nM. On the same count and under the same terms, with `CN1CCC(n2cc(-c3ccc4c(-c5cc(NS(C)(=O)=O)cc(-c6ncc(F)cc6F)c5)cnn4c3)cn2)CC1` [Compound 36] the figure was 0.23 nM.

As to `CS(=O)(=O)Nc1cc(-c2ncc(F)cc2F)cc(-c2cnn3cc(-c4cnn(CCN5CCOCC5)c4)ccc23)c1` [Compound 38], the half-inhibitory concentration (IC50) against human FGFR2 turned out to be 0.72 nM.

In the case of `CS(=O)(=O)Nc1cc(-c2ncc(F)cc2F)cc(-c2cnn3cc(-c4cnn(CC5COCCO5)c4)ccc23)c1` (stereo not drawn) [Compound 39], the concentration for half-maximal inhibition (IC50) against human FGFR2 turned out to be 0.95 nM; at human VEGFR2, 0.66 nM. The matching figures for `CS(=O)(=O)CCCn1cc(-c2ccc3c(-c4cc(NS(C)(=O)=O)cc(-c5ncc(F)cc5F)c4)cnn3c2)cn1` [Compound 40]: 0.77 nM and 1.99 nM.

As for `Cn1cc(-c2ccc3c(-c4cc(-c5ccc(F)cc5F)cc(NS(C)(=O)=O)n4)cnn3c2)cn1` [Compound 41], inhibition against human FGFR2 was half-maximal at 1.81 nM (IC50). Take `Cn1cc(-c2ccc3c(-c4cc(-c5ccc(F)cc5F)cc(NS(=O)(=O)C5CC5)n4)cnn3c2)cn1` [Compound 42]: the IC50 against human FGFR2 is 1.06 nM. Turning to `CCS(=O)(=O)Nc1cc(-c2ccc(F)cc2F)cc(-c2cnn3cc(-c4cnn(C)c4)ccc23)n1` [Compound 43], the IC50 against human FGFR2 is 0.47 nM. On to `CS(=O)(=O)Nc1cc(-c2ncc(F)cc2F)cc(-c2cnn3cc(-c4cnn(CC5COCCN5)c4)ccc23)c1` (stereo not drawn) [Compound 44], for which the IC50 on human FGFR2 came out at 0.72 nM; against human VEGFR2, 1.4 nM. With `CS(=O)(=O)Nc1cc(-c2ncc(F)cc2F)cc(-c2cnn3cc(-c4cnn(CC5COCCN5Cc5ccccc5)c4)ccc23)c1` (stereo not drawn) [Compound 45], the IC50 at human FGFR2 was 29.6 nM; at human VEGFR2, 11.2 nM. The matching figures for `Cn1cc(-c2ccc3c(-c4cc(NCC5COC(C)(C)O5)cc(-c5ncc(F)cc5F)c4)cnn3c2)cn1` (stereo not drawn) [Compound 48]: 0.95 nM and 8.39 nM. `Cn1cc(-c2ccc3c(-c4cc(NCC(C)(C)O)cc(-c5ncc(F)cc5F)c4)cnn3c2)cn1` [Compound 49]: inhibition at human FGFR2 was half-maximal at 2.29 nM (IC50). As to `Cn1cc(-c2ccc3c(-c4cc(NCC(O)CO)cc(-c5ncc(F)cc5F)c4)cnn3c2)cn1` (stereo not drawn) [Compound 50], the IC50 on human FGFR2 was 1.05 nM; against human VEGFR2 it was 3.82 nM. The like results for `Cn1cc(-c2ccc3c(-c4cc(NCC5COC(C)(C)O5)cc(-c5ccc(F)cc5F)c4)cnn3c2)cn1` (stereo not drawn) [Compound 52] were, in that order, 6.59 nM and 21.4 nM. The matching figures for `Cn1cc(-c2ccc3c(-c4cc(NCC(O)CO)cc(-c5ccc(F)cc5F)c4)cnn3c2)cn1` (stereo not drawn) [Compound 53]: 5.59 nM and 3.63 nM.

As for `Cn1cc(-c2ccc3c(-c4cc(NCC(C)(C)O)cc(-c5ccc(F)cc5F)c4)cnn3c2)cn1` [Compound 54], the IC50 on human FGFR2 is 10.6 nM.

For `CS(=O)(=O)Nc1cc(-c2ccc(F)cc2F)cc(-c2cnn3cc(-c4cnn(C5CCNCC5)c4)ccc23)c1` [Hydrochloride salt of compound 21], the IC50 against human FGFR2 amounted to 0.57 nM; in assay [1] it was 9.6 nM.

As to `CS(=O)(=O)Nc1cc(-c2ncc(F)cc2F)cc(-c2cnn3cc(-c4cnn(C5CCNCC5)c4)ccc23)c1` [Hydrochloride salt of compound 37], the IC50 on human FGFR2 was determined as 0.18 nM. On the same count and under the same terms, with `O=S(=O)(Nc1cc(-c2ncc(F)cc2F)cc(-c2cnn3cc(-c4cnn(C5CCNCC5)c4)ccc23)c1)C1CC1` [Hydrochloride salt of compound 47] the figure was 0.45 nM. At human FGFR2, `O=S(=O)(Nc1cc(-c2ccc(F)cc2F)cc(-c2cnn3cc(-c4cnn(C5CCNCC5)c4)ccc23)c1)C1CC1` [Hydrochloride salt of compound 51] yielded an IC50 of 1.27 nM.

As for `Cn1cc(-c2ccc3c(-c4cc(NS(=O)(=O)C5CC5)cc(-c5ccc(F)nc5)c4)cnn3c2)cn1` [Trifluoroacetate salt of compound 9], the IC50 on human FGFR2 was determined as 73.3 nM.

In turn, `Cn1cc(-c2ccc3c(-c4cc(NS(=O)(=O)C5CC5)cc(-c5cccnc5F)c4)cnn3c2)cn1` [Trifluoroacetate salt of compound 10] showed an IC50 against human FGFR2 of 36.5 nM.

Consider `Cn1cc(-c2ccc3c(-c4cc(NS(C)(=O)=O)cc(-c5ccc(F)cc5F)c4)cnn3c2)nn1` [Trifluoroacetate salt of compound 26], for which the results for the IC50 against human FGFR2 and against human VEGFR2 were 1.98 nM and 2.74 nM, respectively. Regarding `Cn1cnc(-c2ccc3c(-c4cc(NS(C)(=O)=O)cc(-c5ccc(F)cc5F)c4)cnn3c2)c1` [Trifluoroacetate salt of compound 27], the results for the concentration for half-maximal inhibition (IC50) (against human FGFR2; in assay [1]) were 2.55 nM and 11.5 nM, respectively. As for `CS(=O)(=O)Nc1cc(-c2cnn3cc(-c4cnn(CCN5CCOCC5)c4)ccc23)cc(-c2ccc(F)cc2F)n1` [Trifluoroacetate salt of compound 29], the 50% inhibitory concentration (IC50) at human FGFR2 was found to be 3.98 nM. Still for that read-out and setting: with `Cn1cc(-c2ccc3c(-c4cc(NS(C)(=O)=O)cc(-c5ncc(F)cc5F)c4)cnn3c2)cn1` [Trifluoroacetate salt of compound 32] the figure was 1.09 nM. For `CCS(=O)(=O)Nc1cc(-c2ncc(F)cc2F)cc(-c2cnn3cc(-c4cnn(C)c4)ccc23)c1` [Trifluoroacetate salt of compound 33], the IC50 came out at 1.21 nM at human FGFR2 and 6.2 nM in assay [1].
